Consider 15 compounds from patent US9376442B2, “Methylpyrrolopyrimidinecarboxamides” (Takeda GmbH, priority 2009, dated 2016).

The target in one assay is T1, PDE5A1 (Homo sapiens, UniProt O76074).
T1 construct: from tissue; host or cells: human platelets from fresh donor blood (10,000 x g supernatant of sonicated lysate)
Kind of assay: Inhibition of type 5 phosphodiesterase (PDE5) activity, modified SPA test with human platelet lysate. In kind it is biochemical. Conditions: 0.5 μM cGMP, read-out: PDE5A1 inhibitory values [measured as −log IC50 (mol/l)] (converted). The method in brief:
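Enzyme source is lysate from human platelets (10,000 g supernatant). Compound preincubated 5 min at 37° C in Tris pH 7.4 containing 1 μM motapizone and 10 nM of a PDE2 inhibitor. Reaction started with 0.5 μM cGMP ([3H] tracer) and run 15 min; SPA read-out, IC50 by non-linear regression.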

For another assay, the target named is T2, PDE4B1 (Homo sapiens, UniProt Q07343).
T2 construct: made in house; host or cells: SF21 insect cells (baculovirus; pCRBac vector), 1000 x g supernatant of homogenate
T2 sequence (Q07343 whole entry): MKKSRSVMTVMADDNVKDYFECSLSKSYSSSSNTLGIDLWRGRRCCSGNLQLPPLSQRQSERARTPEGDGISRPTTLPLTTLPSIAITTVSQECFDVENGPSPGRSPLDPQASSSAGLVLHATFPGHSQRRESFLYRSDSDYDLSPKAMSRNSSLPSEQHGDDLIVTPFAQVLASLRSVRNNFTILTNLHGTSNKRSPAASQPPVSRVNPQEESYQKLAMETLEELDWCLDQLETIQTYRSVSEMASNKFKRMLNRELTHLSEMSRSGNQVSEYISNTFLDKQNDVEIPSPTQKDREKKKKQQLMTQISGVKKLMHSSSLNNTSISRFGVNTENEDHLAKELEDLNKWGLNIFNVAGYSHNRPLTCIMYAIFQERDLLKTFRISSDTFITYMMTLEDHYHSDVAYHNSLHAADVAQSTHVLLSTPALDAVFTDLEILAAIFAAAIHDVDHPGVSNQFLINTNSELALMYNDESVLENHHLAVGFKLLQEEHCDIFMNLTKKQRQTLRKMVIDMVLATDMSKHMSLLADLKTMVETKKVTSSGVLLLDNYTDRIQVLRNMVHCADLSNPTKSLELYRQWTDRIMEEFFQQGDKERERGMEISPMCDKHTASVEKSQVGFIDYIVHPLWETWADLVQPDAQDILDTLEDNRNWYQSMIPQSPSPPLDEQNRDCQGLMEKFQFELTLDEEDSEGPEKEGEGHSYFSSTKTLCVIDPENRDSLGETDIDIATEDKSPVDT
Description: Inhibition of type 4 phosphodiesterase (PDE4) activity, modified SPA test with recombinant PDE4B1 expressed in SF21 insect cells. In kind it is biochemical. Conditions: recombinant PDE4B1, 0.5 μM cAMP, read-out: PDE4B1 inhibitory values [measured as −log IC50 (mol/l)] (converted). Put shortly: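 Modified [3H]cAMP SPA using 1000×g supernatant of SF21 cells expressing recombinant human PDE4B1, in 20 mM Tris pH 7.4, 0.1 mg/ml BSA, 5 mM Mg2+, 0.5 μM cAMP. After 5 min preincubation at 37 °C, 15 min reaction, stopped with SPA beads plus IBMX; IC50 by non-linear regression.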

A further assay concerns mice. Particulars: bleomycin-induced lung fibrosis model in mice; Cortijo et al. 2009; cited from earlier work.
Assay [1] relates to patients with pulmonary fibrosis. Particulars: Ghofrani 2002, Collard 2007; cited from earlier work.
In assay [2] the test system is bleomycin-induced pulmonary fibrosis and pulmonary hypertension. Conditions: Hemnes et al. 2008; cited from earlier work.

Turning to `Cc1ccc(OCC2CC2)c(-c2nc(C)nc3c(C(=O)NC4CCN(C(=O)CO)CC4)c(C)[nH]c23)c1` [Example F106, 4-[2-(Cyclopropylmethoxy)-5-methylphenyl]-N-[1-(hydroxyacetyl)piperidin-4-yl]-2,6-dimethyl-5H-pyrrolo[3,2-d]pyrimidine-7-carboxamide], the IC50 on PDE5A1 is below 1 nM; at PDE4B1, 100 to 1000 nM.

Turning to `CC(=O)N1CCC(NC(=O)c2c(C)[nH]c3c(-c4cc(C(F)F)ccc4OCC4CC4)ncnc23)CC1` [Example P1, N-(1-Acetylpiperidin-4-yl)-4-[2-(cyclopropylmethoxy)-5-(difluoromethyl)phenyl]-6-methyl-5H-pyrrolo[3,2-d]pyrimidine-7-carboxamide], the IC50 at PDE5A1 is below 1 nM; at PDE4B1, below 100 nM.

As to `CCC(=O)N1CCC(NC(=O)c2c(C)[nH]c3c(-c4cc(C(F)F)ccc4OCC4CC4)ncnc23)CC1` [Example P2, 4-[2-(Cyclopropylmethoxy)-5-(difluoromethyl)phenyl]-6-methyl-N-(1-propanoylpiperidin-4-yl)-5H-pyrrolo[3,2-d]pyrimidine-7-carboxamide], the IC50 is below 1 nM at PDE5A1 and below 100 nM on PDE4B1.

As for `COCC(=O)N1CCC(NC(=O)c2c(C)[nH]c3c(-c4cc(C(F)F)ccc4OCC4CC4)ncnc23)CC1` [Example P3, 4-[2-(Cyclopropylmethoxy)-5-(difluoromethyl)phenyl]-N-[1-(methoxyacetyl)piperidin-4-yl]-6-methyl-5H-pyrrolo[3,2-d]pyrimidine-7-carboxamide], the IC50 was 1 to 10 nM on PDE5A1 and below 100 nM at PDE4B1.

With `CC(=O)N[C@H]1CC[C@H](NC(=O)c2c(C)[nH]c3c(-c4cc(C(F)F)ccc4OCC4CC4)ncnc23)CC1` [Example P6, N-[trans-4-(Acetylamino)cyclohexyl]-4-[2-(cyclopropylmethoxy)-5-(difluoromethyl)phenyl]-6-methyl-5H-pyrrolo[3,2-d]pyrimidine-7-carboxamide], the IC50 was below 1 nM on PDE5A1 and below 100 nM at PDE4B1.

`CCC(=O)N[C@H]1CC[C@H](NC(=O)c2c(C)[nH]c3c(-c4cc(C(F)F)ccc4OCC4CC4)ncnc23)CC1` [Example P7, 4-[2-(Cyclopropylmethoxy)-5-(difluoromethyl)phenyl]-6-methyl-N-[trans-4-(propanoylamino)cyclohexyl]-5^H-pyrrolo[3,2-d]pyrimidine-7-carboxamide]: the IC50 is below 1 nM at PDE5A1 and below 100 nM at PDE4B1.

For `COCC(=O)N[C@H]1CC[C@H](NC(=O)c2c(C)[nH]c3c(-c4cc(C(F)F)ccc4OCC4CC4)ncnc23)CC1` [Example P8, 4-[2-(Cyclopropylmethoxy)-5-(difluoromethyl)phenyl]-N-{trans-4-[(methoxyacetyl)amino]cyclohexyl}-6-methyl-5H-pyrrolo[3,2-d]pyrimidine-7-carboxamide], the IC50 at PDE5A1 is below 1 nM; on PDE4B1, below 100 nM.

Consider `CC(=O)N1C[C@@H](NC(=O)c2c(C)[nH]c3c(-c4cc(C(F)F)ccc4OCC4CC4)ncnc23)C[C@@H]1C` [Example P24, N-[(3S,5S)-1-Acetyl-5-methylpyrrolidin-3-yl]-4-[2-(cyclopropylmethoxy)-5-(difluoromethyl)phenyl]-6-methyl-5H-pyrrolo[3,2-d]pyrimidine-7-carboxamide], for which the IC50 was 1 to 10 nM at PDE5A1 and below 100 nM at PDE4B1.

In the case of `CCC(=O)N1C[C@@H](NC(=O)c2c(C)[nH]c3c(-c4cc(C(F)F)ccc4OCC4CC4)ncnc23)C[C@@H]1C` [Example P25, 4-[2-(Cyclopropylmethoxy)-5-(difluoromethyl)phenyl]-6-methyl-N-[(3S,5S)-5-methyl-1-propanoylpyrrolidin-3-yl]-5H-pyrrolo[3,2-d]pyrimidine-7-carboxamide], the IC50 at PDE5A1 was 1 to 10 nM; at PDE4B1, below 100 nM.

Turning to `COCC(=O)N1C[C@@H](NC(=O)c2c(C)[nH]c3c(-c4cc(C(F)F)ccc4OCC4CC4)ncnc23)C[C@@H]1C` [Example P26, 4-[2-(Cyclopropylmethoxy)-5-(difluoromethyl)phenyl]-N-[(3S,5S)-1-(methoxyacetyl)-5-methylpyrrolidin-3-yl]-6-methyl-5H-pyrrolo[3,2-d]pyrimidine-7-carboxamide], the IC50 is 1 to 10 nM at PDE5A1 and below 100 nM at PDE4B1.

Take `CC(=O)N[C@H]1CC[C@H](NC(=O)c2c(C)[nH]c3c(-c4cc(C(F)F)ccc4OCC4CC4)ncnc23)C1` [Example P89, N-[(1S,3S)-3-(Acetylamino)cyclopentyl]-4-[2-(cyclopropylmethoxy)-5-(difluoromethyl)phenyl]-6-methyl-5H-pyrrolo[3,2-d]pyrimidine-7-carboxamide]: the IC50 was below 1 nM at PDE5A1 and below 100 nM at PDE4B1.

Consider `CCC(=O)N[C@H]1CC[C@H](NC(=O)c2c(C)[nH]c3c(-c4cc(C(F)F)ccc4OCC4CC4)ncnc23)C1` [Example P90, 4-[2-(Cyclopropylmethoxy)-5-(difluoromethyl)phenyl]-6-methyl-N-[(1S,3S)-3-(propanoylamino)cyclopentyl]-5H-pyrrolo[3,2-d]pyrimidine-7-carboxamide], for which the IC50 at PDE5A1 is below 1 nM; at PDE4B1 it was below 100 nM.

For `COCC(=O)N[C@H]1CC[C@H](NC(=O)c2c(C)[nH]c3c(-c4cc(C(F)F)ccc4OCC4CC4)ncnc23)C1` [Example P91, 4-[2-(Cyclopropylmethoxy)-5-(difluoromethyl)phenyl]-N-{(1S,3S)-3-[(methoxyacetyl)amino]cyclopentyl}-6-methyl-5H-pyrrolo[3,2-d]pyrimidine-7-carboxamide], the IC50 was below 1 nM on PDE5A1 and below 100 nM on PDE4B1.

`O=C(Nc1c(Cl)cncc1Cl)c1ccc(OC(F)F)c(OCC2CC2)c1` [roflumilast]: the fibrosis development entry in the assay on mice was “inhibit fibrosis development”.

Take `CCCc1nn(C)c2c(=O)[nH]c(-c3cc(S(=O)(=O)N4CCN(C)CC4)ccc3OCC)nc12` [sildenafil]: in assay [1], the exercise tolerance result was “increases exercise tolerance”; the “lung hemodynamic (vascular resistance and ventilation/perfusion matching)” value is on record as “improves lung hemodynamic”. Further, in assay [2], the “bleomycin-induced pulmonary fibrosis and pulmonary hypertension” value was “attenuates bleomycin-induced pulmonary fibrosis and pulmonary hypertension”.
